This note sets out measurements from US9561197B2 (Horizon Therapeutics, LLC, priority 2012, dated 2017).

The conditions of data set [1]: Patient 1.
Test in data set [2]: not given
This is another data set of the same source.

The conditions of data set [3]: Patient 2.

Like-named read-outs stand apart in the source and are kept apart here.

`O=C(CCCc1ccccc1)OCC(COC(=O)CCCc1ccccc1)OC(=O)CCCc1ccccc1` [HPN-100, glyceryl tri-[4-phenylbutyrate]] displayed an ammonia (Patient 3, HPN-100 18 mL/day for the past month) of 22 µmol/L; an ammonia in data set [1] (HPN-100 9 mL/day, after overnight fasting) of 55 µmol/L; an ammonia in data set [1] (HPN-100 9 mL/day, midday several hours after lunch) of 117 µmol/L; an ammonia in data set [1] (HPN-100 12 mL/day for one week, after overnight fasting) of 9 µmol/L; an ammonia in data set [1] (HPN-100 12 mL/day for one week, midday) of 35 µmol/L; an ammonia in data set [2] (Patient 7, HPN-100 6 mL BID, follow up after 3 months (blood ammonia 85 μmol/L before therapy)) of 30 µmol/L. This compound also yielded a PAGN (human, in vivo) of 259 µg/L. Also, the complaints result (human, in vivo) was “did not have any complaints”. Besides, the “symptoms (headache, lack of appetite)” value in data set [1] (after one week at HPN-100 12 mL/day) is reported as “all symptoms resolved”. Besides, the “episodes of HE” value in data set [2] (Patient 7, HPN-100 6 mL BID, during 3 months) is “no episodes of HE”. Also, the unusual symptoms entry in data set [2] (human, in vivo) is “did not report any unusual symptoms”. Moreover, the “unusual symptoms such as dizziness, headache, or nausea” value in data set [2] (human, in vivo) is listed as “had not experienced any unusual symptoms”.

Consider sodium phenylbutyrate [NaPBA], for which the ammonia in data set [3] (NaPBA 450 mg/Kg/day for one week) turned out to be 20 µmol/L. The compound also yielded an ammonia levels in data set [3] (NaPBA 600 mg/kg per day) of under 9 µmol/L.
